For orientation: solubility means the dissolved amount per volume that the medium holds. Read a high solubility as a readily soluble substance.

The source of these data is patent publication US20230340440A1, “GENETIC MANIPULATION METHOD IN BACTERIA” (University of Washington, priority 2022, published 2023).

The subject of one series is E. coli. Description: growth experiment with extracellular p-ACA, E. coli. The class given is cell-based. An excerpt:
(§1) FIGS. 31A-31F show CRISPRa efficiency can be tuned by expression level of scRNA. The optimized expression level of scRNA from pBBR1-GmR is under J23110 promoter. Higher level (BBa_J23119) or lower level (BBa_J23106) led to decrease in CRISPRa effects (FIG. 31A). CRISPRa efficiency can be tuned by scRNA composition (FIG. 31B). Truncating the spacer sequence from 20 nucleotides to 8 nucleotides led to titratable expression level by CRISPRa. Desired product p-ACA is toxic to E. coli but not P. putida (FIG. 31C). In this kinetic growth experiment, extracellular p-ACA is supplied in the media at the indicated concentrations, and cultures are grown in a plate reader with periodic density measurements. E. coli growth is severely limited above 20 mM p-ACA (dash-dotted line). Early timepoints are sometimes obscured by p-ACA precipitate, which eventually resolubilizes. […] Error bars represent standard deviation of n=3 biological replicates. […] An example of CRISPRa with 3 orthogonal scRNAs activating 3 fluorescent reporters (FIG. 31E). Multiple scRNAs construction strategy was based on Golden-Gate Assembly (FIG. 31F).
(§2) With further chemical modification or bioconversions, pACA can be converted into p-aminostyrene (pAS) which is a precursor of derivatized polystyrene, containing a functional group for further modification or functionalization with other polymers. […] Assuming that high concentration of pACA could be deleterious to the host, a growth experiment using E. coli, the standard chassis, and P. putida, known for resistance to aromatic compounds was performed. It is obvious that E. coli cannot tolerate high concentrations of pACA while P. putida growth is less affected. Thus, the solution to microbial production of pACA might be achievable with P. putida as an alternative chassis.
As originally implemented in E. coli, the p-AF production pathway consisted of the P. fluorescens papABC operon78 under tet-inducible control, along with a feedback-resistant E. coli aroG74 and aroL in their own operon, which is also tet-inducible. […] Toxic amounts of extracellular p-ACA, the result of a spike into the media, are shown in FIG. 31B, with 50% reduction of E. coli growth occurring above 10 mM extracellular.

The subject of the next series is P. putida. Description: growth experiment with extracellular p-ACA, P. putida. It is filed as cell-based.
Text: as §1, §2
In contrast to E. coli, p-ACA has little effect on P. putida growth, even up to 20 mM extracellular (close to its solubility limit). Therefore, the inventors chose to port the existing pAF pathway into P. putida to extend it to more valuable downstream aromatic products.

A further series in a line: p-ACA solubility limit. The following applies: aqueous buffer; extracellular, culture media. The class given is physicochemical.
The test system of the next series is P. putida cultures. Description: consumption of extracellular p-ACA by growing P. putida cultures. Particulars: stability of accumulation in culture supernatant.

Structures are written as SMILES. Converted amounts (≈) assume the structure as drawn. Like-named read-outs stand apart in the source and are kept apart here. Bounds are passed on as bounds.

As for `Nc1ccc(C=CC(=O)O)cc1` [p-ACA, p-aminocinnamic acid], the IC50 in the series with E. coli (Escherichia coli, read-out: 50% reduction of E. coli growth) is above 10 mM. In the series on E. coli (kinetic growth experiment, extracellular p-ACA in the media, plate reader (FIG. 31C)), the “E. coli growth severely limited above” value was “above 20 mM”. For the same compound, the “toxic effects in E. coli host” value in the series with E. coli (production/accumulation in E. coli) is recorded as “toxic effects”. Also, in the series on P. putida (follow-up experiments), the “toxicity in P. putida strain with the putative catabolic pathway knocked out” value is on record as “lack of p-ACA toxicity”. The P. putida growth entry in the series on P. putida (kinetic growth experiment, extracellular p-ACA in the media (FIG. 31C)) was “relatively unaffected”. The “effect on P. putida growth” value in the series with P. putida (up to 20 mM extracellular) is reported as “little effect”. The solubility in the series “p-ACA solubility limit” was around 20 mM (≈ 3260 µg/mL). In the series on P. putida cultures, the “consumption of extracellular p-ACA by growing P. putida cultures” value is “lack of consumption”.
`Nc1ccc(C[C@H](N)C(=O)O)cc1` [p-AF, p-aminophenylalanine]: the “toxic effects in E. coli host” value in the series with E. coli was “can safely accumulate”.
